Format in all cases: functional
Assay [1] has as its system Escherichia coli. Description: Antimicrobial activity against Escherichia coli ATCC 25922.
Assay [2] has as its system Haemophilus influenzae. Description: Antimicrobial activity against LS2 Efflux knock-out Haemophilus influenzae.
The test system of assay [3] is Escherichia coli. The assay can be described thus: Antimicrobial activity against Escherichia coli 49.
In assay [4] the test system is Staphylococcus aureus. Description: Antimicrobial activity against methicillin-sensitive Staphylococcus aureus ATCC 13709.
For assay [5], the system named is Staphylococcus aureus. The assay can be described thus: Antimicrobial activity against Staphylococcus aureus Oxford.
The subject of another assay is Enterococcus faecium. The assay can be described thus: Antimicrobial activity against vancomycin-resistant Enterococcus faecium.
For assay [6], the system named is Staphylococcus aureus. Description: Antimicrobial activity against methicillin-resistant Staphylococcus aureus.
A further assay concerns Pseudomonas aeruginosa. The assay can be described thus: Antimicrobial activity against Pseudomonas aeruginosa ATCC 27853.
Another assay relates to Enterococcus faecalis. Description: Antimicrobial activity against vancomycin-susceptible Enterococcus faecalis ATCC 29212.
The test system of assay [7] is Escherichia coli. Description: Antimicrobial activity against Escherichia coli 50.
The test system of assay [8] is Streptococcus pneumoniae. Description: Antimicrobial activity against penicillin- and erythromycin-resistant Streptococcus pneumoniae.
Assay [9] concerns Streptococcus pneumoniae. Description: Antimicrobial activity against penicillin- and erythromycin-resistant Streptococcus pneumoniae in presence of 2.5% horse blood.
Assay [10] relates to Streptococcus pneumoniae. The assay can be described thus: Antimicrobial activity against erythromycin-susceptible Streptococcus pneumoniae ATCC 49619.
In assay [11] the test system is Haemophilus influenzae. The assay can be described thus: Antimicrobial activity against Haemophilus influenzae ATCC 31517 MMSA.
In assay [12] the test system is Staphylococcus aureus. Description: Antimicrobial activity against vancomycin-susceptible Staphylococcus aureus ATCC 25923.

Molecules are shown by their SMILES. Converted amounts (≈) assume the structure as drawn. Where only a bound is given, the exact number is not on record here.

As for `C/C(NCCOc1ccccc1Cl)=C1/C(=O)[C@@H]2CCCC(=O)N2C1=O`, the MIC against Escherichia coli [1], against Haemophilus influenzae [2], in the assay on Escherichia coli [3], in the assay with Staphylococcus aureus [4], in the assay with Staphylococcus aureus [5] and against Enterococcus faecium was above 32 µg/mL each time. Besides, the MIC against Staphylococcus aureus [6], in the assay on Pseudomonas aeruginosa, in the assay on Enterococcus faecalis, in the assay with Escherichia coli [7], against Streptococcus pneumoniae [8] and with Streptococcus pneumoniae [9] was above 32 µg/mL each time. Besides, the MIC with Streptococcus pneumoniae [10], in the assay on Haemophilus influenzae [11] and in the assay on Staphylococcus aureus [12] was above 32 µg/mL throughout.
For the compound `CCOC(=O)[C@]12CO[C@H](C(C)(C)C)N1C(=O)/C(=C(\C)NCc1ccc(C)o1)C2=O`, the MIC against Escherichia coli [1], against Haemophilus influenzae [2], against Escherichia coli [3], against Staphylococcus aureus [4], with Staphylococcus aureus [5] and in the assay with Enterococcus faecium was above 32 µg/mL each time. Besides, the MIC with Staphylococcus aureus [6], against Pseudomonas aeruginosa, against Enterococcus faecalis, with Escherichia coli [7], in the assay with Streptococcus pneumoniae [8] and in the assay with Streptococcus pneumoniae [9] was above 32 µg/mL throughout. The MIC in the assay on Streptococcus pneumoniae [10], against Haemophilus influenzae [11] and in the assay with Staphylococcus aureus [12] was above 32 µg/mL each time.
Take `COC(=O)[C@]12CO[C@H](C(C)(C)C)N1C(=O)/C(=C(/CCCOc1ccccc1)NCCCOC(C)C)C2=O`: the MIC in the assay with Escherichia coli [1], in the assay on Haemophilus influenzae [2], against Escherichia coli [3], in the assay on Staphylococcus aureus [4], in the assay with Staphylococcus aureus [5] and against Enterococcus faecium was above 32 µg/mL throughout. In addition, the MIC in the assay on Staphylococcus aureus [6], with Pseudomonas aeruginosa, against Enterococcus faecalis, against Escherichia coli [7], against Streptococcus pneumoniae [8] and in the assay with Streptococcus pneumoniae [9] was above 32 µg/mL each time. For the same compound, the MIC with Streptococcus pneumoniae [10], against Haemophilus influenzae [11] and with Staphylococcus aureus [12] was above 32 µg/mL throughout.
`O=C1CNC(=O)/C1=C(\NC1CCCCC1)c1cccc2ccccc12`: the MIC in the assay with Escherichia coli [1], with Haemophilus influenzae [2], with Escherichia coli [3], with Staphylococcus aureus [4], against Staphylococcus aureus [5] and in the assay with Enterococcus faecium was above 32 µg/mL in each case. In addition, the MIC with Staphylococcus aureus [6], in the assay on Pseudomonas aeruginosa, against Enterococcus faecalis, against Escherichia coli [7], in the assay on Streptococcus pneumoniae [8] and with Streptococcus pneumoniae [9] was above 32 µg/mL each time. Also, the MIC against Streptococcus pneumoniae [10], in the assay on Haemophilus influenzae [11] and against Staphylococcus aureus [12] was above 32 µg/mL each time.
For `COC(=O)[C@@]12CO[C@@H](C(C)(C)C)N1C(=O)/C(=C(\C)Nc1ccccc1)C2=O`, the MIC with Escherichia coli [1], in the assay with Haemophilus influenzae [2], against Escherichia coli [3], against Staphylococcus aureus [4], in the assay on Staphylococcus aureus [5] and in the assay on Enterococcus faecium was above 32 µg/mL each time. In addition, the MIC in the assay with Staphylococcus aureus [6], against Pseudomonas aeruginosa, with Enterococcus faecalis, against Escherichia coli [7], in the assay on Streptococcus pneumoniae [8] and with Streptococcus pneumoniae [9] was above 32 µg/mL in each case. The MIC with Streptococcus pneumoniae [10], in the assay on Haemophilus influenzae [11] and against Staphylococcus aureus [12] was above 32 µg/mL in each case.
For the compound `CCOC(=O)[C@]12CO[C@H](C(C)(C)C)N1C(=O)/C(=C(\C)N1CCN(C3CCCCC3)CC1)C2=O`, the MIC in the assay on Escherichia coli [1], in the assay with Haemophilus influenzae [2], with Escherichia coli [3], against Staphylococcus aureus [4], with Staphylococcus aureus [5] and against Enterococcus faecium was above 32 µg/mL in each case. The MIC with Staphylococcus aureus [6], against Pseudomonas aeruginosa, against Enterococcus faecalis, against Escherichia coli [7], in the assay with Streptococcus pneumoniae [8] and with Streptococcus pneumoniae [9] was above 32 µg/mL in each case. The MIC with Streptococcus pneumoniae [10], against Haemophilus influenzae [11] and against Staphylococcus aureus [12] was above 32 µg/mL throughout.
In the case of `CCOC(=O)[C@]12CO[C@H](C(C)(C)C)N1C(=O)/C(=C(/CC13CC4CC(C)(CC(C)(C4)C1)C3)NC(C)CCCN(CC)CC)C2=O` (stereo not given in full), the MIC against Escherichia coli [1], with Haemophilus influenzae [2], in the assay with Escherichia coli [3], with Staphylococcus aureus [4], in the assay on Staphylococcus aureus [5] and against Enterococcus faecium was above 32 µg/mL throughout. Moreover, the MIC against Staphylococcus aureus [6], with Pseudomonas aeruginosa, in the assay on Enterococcus faecalis, with Escherichia coli [7], with Streptococcus pneumoniae [8] and with Streptococcus pneumoniae [9] was above 32 µg/mL in each case. For the same compound, the MIC with Streptococcus pneumoniae [10], in the assay on Haemophilus influenzae [11] and in the assay with Staphylococcus aureus [12] was above 32 µg/mL each time.
`CCCCCCCCCCC/C(Nc1ccc(NC(=O)COCC(=O)O)cc1)=C1\C(=O)CN(CCCCCC)C1=O`: the MIC with Escherichia coli [1] is above 32 µg/mL; in the assay with Haemophilus influenzae [2], above 64 µg/mL; against Escherichia coli [3], above 32 µg/mL; against Staphylococcus aureus [4], above 64 µg/mL; against Staphylococcus aureus [5], above 64 µg/mL; against Enterococcus faecium it was above 64 µg/mL. In addition, the MIC was above 64 µg/mL in the assay on Staphylococcus aureus [6]; above 32 µg/mL with Pseudomonas aeruginosa; above 64 µg/mL against Enterococcus faecalis; above 32 µg/mL in the assay with Escherichia coli [7]; 2 µg/mL (≈ 3.5 µM) against Streptococcus pneumoniae [8]; above 64 µg/mL with Streptococcus pneumoniae [9]. Also, the results for the MIC against Streptococcus pneumoniae [10], in the assay on Haemophilus influenzae [11] and with Staphylococcus aureus [12] were 2 µg/mL (≈ 3.5 µM), above 64 µg/mL and above 64 µg/mL, respectively.
As to `COC(=O)[C@]12CO[C@H](C(C)(C)C)N1C(=O)/C(=C(/CCCOc1ccccc1)NCCN1CCCCC1)C2=O`, the MIC against Escherichia coli [1], with Haemophilus influenzae [2], with Escherichia coli [3], against Staphylococcus aureus [4], against Staphylococcus aureus [5] and against Enterococcus faecium was above 32 µg/mL each time. Moreover, the MIC in the assay on Staphylococcus aureus [6], in the assay on Pseudomonas aeruginosa, against Enterococcus faecalis, in the assay with Escherichia coli [7], against Streptococcus pneumoniae [8] and in the assay with Streptococcus pneumoniae [9] was above 32 µg/mL each time. Also, the MIC in the assay on Streptococcus pneumoniae [10], in the assay on Haemophilus influenzae [11] and against Staphylococcus aureus [12] was above 32 µg/mL in each case.
Turning to `CCOC(=O)[C@]12CO[C@H](C(C)(C)C)N1C(=O)/C(=C(\C)NCc1cccc(CN3CCC(C)CC3)c1)C2=O`, the MIC against Escherichia coli [1], with Haemophilus influenzae [2], in the assay with Escherichia coli [3], against Staphylococcus aureus [4], against Staphylococcus aureus [5] and with Enterococcus faecium was above 32 µg/mL in each case. The MIC in the assay on Staphylococcus aureus [6], in the assay with Pseudomonas aeruginosa, in the assay on Enterococcus faecalis, against Escherichia coli [7], against Streptococcus pneumoniae [8] and with Streptococcus pneumoniae [9] was above 32 µg/mL each time. For the same compound, the MIC in the assay on Streptococcus pneumoniae [10], in the assay on Haemophilus influenzae [11] and in the assay on Staphylococcus aureus [12] was above 32 µg/mL each time.
As to `CSCCC1C(=O)/C(=C(\CC23CC4CC(C)(CC(C)(C4)C2)C3)NCC(C)(C)CN(C)C)C(=O)N1C(C)=O` (stereo not given), the MIC against Escherichia coli [1] was above 32 µg/mL; in the assay with Haemophilus influenzae [2], 4 µg/mL (≈ 7.52 µM); against Escherichia coli [3], above 32 µg/mL; against Staphylococcus aureus [4] it was above 64 µg/mL; against Staphylococcus aureus [5] it was above 64 µg/mL; in the assay with Enterococcus faecium, above 64 µg/mL. Besides, the MIC with Staphylococcus aureus [6] is above 64 µg/mL; in the assay with Pseudomonas aeruginosa, above 32 µg/mL; with Enterococcus faecalis, above 64 µg/mL; in the assay on Escherichia coli [7], above 32 µg/mL; in the assay with Streptococcus pneumoniae [8], above 64 µg/mL; in the assay with Streptococcus pneumoniae [9], above 64 µg/mL. Further, the MIC against Streptococcus pneumoniae [10], against Haemophilus influenzae [11] and against Staphylococcus aureus [12] was above 64 µg/mL each time.
Take `CCCC(=O)N1CC(=O)/C(=C(\CC23CC4CC(C)(CC(C)(C4)C2)C3)NCCCN2CCOCC2)C1=O`: the MIC in the assay on Escherichia coli [1] is above 32 µg/mL; in the assay with Haemophilus influenzae [2], 8 µg/mL (≈ 16 µM); with Escherichia coli [3], above 32 µg/mL; against Staphylococcus aureus [4], above 64 µg/mL; in the assay with Staphylococcus aureus [5], above 64 µg/mL; against Enterococcus faecium, above 64 µg/mL. Besides, the MIC against Staphylococcus aureus [6] is above 64 µg/mL; in the assay with Pseudomonas aeruginosa it was above 32 µg/mL; with Enterococcus faecalis, above 64 µg/mL; against Escherichia coli [7], above 32 µg/mL; against Streptococcus pneumoniae [8], 16 µg/mL (≈ 32 µM); in the assay with Streptococcus pneumoniae [9] it was 32 µg/mL. Also, the MIC in the assay on Streptococcus pneumoniae [10] is 16 µg/mL (≈ 32 µM); with Haemophilus influenzae [11], above 64 µg/mL; in the assay on Staphylococcus aureus [12] it was above 64 µg/mL.
In the case of `CCCCCCCCC/C(NC(C)CCCN(CC)CC)=C1/C(=O)N2[C@@H](C(C)(C)C)OC[C@]2(C(=O)OC)C1=O` (stereo not given in full), the MIC in the assay on Escherichia coli [1] is above 32 µg/mL; against Haemophilus influenzae [2], above 64 µg/mL; in the assay on Escherichia coli [3], above 32 µg/mL; in the assay with Staphylococcus aureus [4], 16 µg/mL (≈ 29.1 µM); against Staphylococcus aureus [5], 16 µg/mL (≈ 29.1 µM); against Enterococcus faecium, 8 µg/mL (≈ 14.6 µM). Besides, the MIC is 16 µg/mL (≈ 29.1 µM) in the assay with Staphylococcus aureus [6]; above 32 µg/mL in the assay on Pseudomonas aeruginosa; 16 µg/mL (≈ 29.1 µM) against Enterococcus faecalis; above 32 µg/mL against Escherichia coli [7]; 4 µg/mL (≈ 7.28 µM) in the assay with Streptococcus pneumoniae [8]; 16 µg/mL in the assay with Streptococcus pneumoniae [9]. For the same compound, the MIC against Streptococcus pneumoniae [10] was 4 µg/mL (≈ 7.28 µM); against Haemophilus influenzae [11] it was above 64 µg/mL; against Staphylococcus aureus [12], 16 µg/mL (≈ 29.1 µM).
Take `CCCC(=O)N1CC(=O)/C(=C(\CCCCc2ccccc2)NC2CC(C)(C)N(C)C(C)(C)C2)C1=O`: the MIC against Escherichia coli [1], in the assay on Haemophilus influenzae [2], in the assay on Escherichia coli [3], in the assay on Staphylococcus aureus [4], with Staphylococcus aureus [5] and with Enterococcus faecium was above 32 µg/mL throughout. Also, the MIC with Staphylococcus aureus [6], with Pseudomonas aeruginosa, against Enterococcus faecalis, in the assay on Escherichia coli [7], in the assay with Streptococcus pneumoniae [8] and in the assay on Streptococcus pneumoniae [9] was above 32 µg/mL throughout. The MIC with Streptococcus pneumoniae [10], against Haemophilus influenzae [11] and against Staphylococcus aureus [12] was above 32 µg/mL in each case.

The record behind these values is ChEMBL document CHEMBL3232809, “Synthesis, antibiotic activity and structure-activity relationship study of some 3-enaminetetramic acids” (2014).
